SMILES strings stand for the structures.

The record followed here is patent US20240299300A1, “LIPOSOME VITAMIN C PREPARATION” (priority 2023, published 2024).

The series deals with H9 cells, a human T-cell line. Nature of the series: Vitamin C uptake in H9 T-cells. As to conditions: 50 μM. It counts as cell-based. As to the method:
At the times indicated in FIG. 13, cells were harvested and measured for vitamin C and protein content. The cellular vitamin C levels of the cells were measured.

As for `O=C1O[C@H]([C@@H](O)CO)C(O)=C1O` [nonliposomal vitamin C, ascorbic acid], the “cellular vitamin C level (peak)” value (approximately two hours) amounted to 20 nmol/mg protein. For the same compound, the “cellular vitamin C level” value (fifteen minutes) was found to be 6±1.4 nmol/mg protein.
